In assay [1] the test system is L-687,414-induced hyperlocomotion. Briefly: L-687,414-induced hyperlocomotion (Digiscan locomotor activity). To be noted: Mus musculus; dose ip 30 mg/kg, at the same time as s.c. 50 mg/kg L-687,414; mice. It is filed as in vivo, mouse. An excerpt: The authors described that hyperlocomotion induced by L-687,414 was inhibited by a series of known antipsychotic drugs. […] These findings predict antipsychotic activity for the present compounds, making them useful for the treatment of positive (psychosis) and negative symptoms of schizophrenia, substance abuse, alcohol and drug addiction, obsessive-compulsive disorders, cognitive impairment, bipolar disorders, mood disorders, major depression, resistant depression, anxiety disorders, Alzheimer's disease, autism, Parkinson's disease, chronic pain, borderline personality disorder, sleep disturbances, chronic fatigue syndrome, stiffness, antiinflammatory effects in arthritis and balance problems.
The described compounds of formula I reduce L-687,414-induced hyperlocomotion. This was assessed by using a computerized Digiscan 16 Animal Activity Monitoring System (Omnitech Electronics, Columbus, Ohio) to quantify locomotor activity. Animals were kept under a 12 h light/dark cycle and experiments were performed during the light period. Each activity monitoring chamber consisted of a Plexiglas box (41×41×28 cm; W×L×H) with sawdust bedding on the floor surrounded by invisible horizontal and vertical infrared sensor beams. The test boxes were divided by a Plexiglas cross providing each mouse with 20×20 cm of moving space. Cages were connected to a Digiscan Analyzer linked to a computer that constantly collected the beam status information. Records of photocell beam interruptions for individual animals were taken every 5 min over the duration of the experimental session and the sum of the first 6 periods was used as the final parameter. Compounds were administered either p.o. 15 min before a s.c. injection of 50 mg/kg of L-687,414, or i.p. at the same time as a s.c. injection of 50 mg/kg of L-687,414. Mice were then transferred from their home cage to the recording chambers for a 15-min habituation phase allowing free exploration of the new environment. Horizontal activity was then recorded for a 30-min time period. The % inhibition of L-687,414-induced hyperlocomotion was calculated according to the equation: ((Veh+L-687,414 horizontal activity−drug+L-687,414 horizontal activity)Veh+L-687,414 horizontal activity)×100
ID50 values, defined as doses of each compound producing 50% inhibition of L-687,414-induced hyperlocomotion, were calculated by linear regression analysis of a dose-response data using an Excel-based computer-fitting program.
As data was not presupposed to be normally distributed, groups treated with test compounds were statistically compared with the control (vehicle-treated) group using one-tailed Mann Whitney U tests. In statistics, the Mann-Whitney Utest (also called the Mann-Whitney-Wilcoxon (MWW) or Wilcoxon rank-sum test) is a non-parametric statistical hypothesis test for assessing whether one of two samples of independent observations tends to have larger values than the other. It is one of the most well-known non-parametric significance tests. […] P values given in table 1 are one-tailed since only decreases in locomotion were expected and tested for (Mann, H. B., Whitney, D. R. (1947), “On a Test of Whether one of Two Random Variables is Stochastically Larger than the Other”, Annals of Mathematical Statistics, 18 (1), 50-60).

The test system of assay [2] is behaviors of compound-treated mice. Briefly: SmartCube behavioral signature and similarity analysis. It is filed as in vivo. Also noted: key to discrimination rate vs Clozapine / discrimination rate vs Olanzapine / discrimination rate vs Risperidone: discrimination rate as fraction; 0.5 = zero distinguishability. To be noted: 25 mg/kg i.p.; for SmartCube behavioral signature: compared with reference drug classes; for discrimination rate vs Clozapine / discrimination rate vs Olanzapine / discrimination rate vs Risperidone: rate of 0.70 or lower = similar. The text has this: In addition to the reversal of L-687,414 induced hyperlocomotion experiment as described above, some compounds of the present invention have been tested in SmartCube®, an automated system in which the behaviors of compound-treated mice in response to multiple challenges are captured by digital video and analyzed with computer algorithms (Roberds et al., Frontiers in Neuroscience, 2011, Vol. 5, Art. 103, 1-4). In this way, the neuro-pharmacological effects of a test compound can be predicted by similarity to major classes of compounds, such as antipsychotics, anxiolytics and antidepressants.
As mentioned above, some compounds have been tested in SmartCube®, an analytical system developed by PsychoGenics Inc.
SmartCube® was used to compare the behavioral signature of a test compound to a database of behavioral signatures obtained from a large set of clinically approved reference drugs, grouped per indications. In this way, the neuro-pharmacological effects of a test compound can be predicted by similarity to major classes of compounds, such as antipsychotics, anxiolytics and antidepressants. This approach is ideally suited to screen collections of existing drugs or drug candidates with previously unknown neuropharmacology, which could expedite the development of new and unexpected treatments for psychiatric disorders.
Some compounds of the present invention were injected i.p. at different doses 15 minutes before the test. At least 8 mice were used in each treatment group. Digital videos of the subjects were processed with computer vision algorithms to extract over 2000 dependent measures including frequency and duration of many different behavioral states. The results of the classifications are presented as bar charts for each compound and dose (mg/kg), the Y-axis indicates the relative probability that the test compound will show efficacy in the specific CNS indication.
Compounds of the present invention show similar signatures to those of atypical antipsychotics. An independent analysis was performed on the unclassified data to determine the similarity of the example compounds to active doses of known atypical antipsychotics. For this analysis, we use discrimination rate as the measure of separability between the two drugs, i.e. one drug's “distinguishability” from another. A rate equal to 50% (or 0.5) corresponds to zero distinguishability. […] In most cases, the example compounds show a similarity to risperidone, clozapine and olanzapine with a discrimination rate of ≦0.70.

As usually defined, the inhibition is the percentage by which the read-out fell short of the control. Compound `CN1C(=O)C(C)(C)c2ccc(-c3cccnn3)cc21` [Example 13, 1,3,3-Trimethyl-6-(pyridazin-3-yl)indolin-2-one] came in with an inhibition at 30 mg/kg in assay [1] of 76.9%. In addition, in assay [2], the SmartCube behavioral signature entry is listed as “similarity to atypical antipsychotics”, the “discrimination rate vs Clozapine” value was 0.69, the “discrimination rate vs Olanzapine” value worked out at 0.70 and the “discrimination rate vs Risperidone” value was found to be 0.72.

In the case of `Cc1ncc(-c2ccc3c(c2)N(C)C(=O)C3(C)C)o1` [Example 71, 1,3,3-Trimethyl-6-(2-methyloxazol-5-yl)indolin-2-one], 30 mg/kg produced 68.5% inhibition in assay [1]. In addition, in assay [2], the SmartCube behavioral signature result is “similarity to atypical antipsychotics”, the “discrimination rate vs Clozapine” value is reported as 0.79, the “discrimination rate vs Olanzapine” value turned out to be 0.66 and the “discrimination rate vs Risperidone” value came to 0.63.

For `Cc1ncc(-c2ccc3c(c2)N(CCCS(=O)(=O)C2CC2)C(=O)C3(C)C)cn1` [Example 54, 1-(3-(Cyclopropylsulfonyl)propyl)-3,3-dimethyl-6-(2-methylpyrimidin-5-yl)indolin-2-one], in assay [2], the SmartCube behavioral signature result is on record as “similarity to atypical antipsychotics”, the “discrimination rate vs Clozapine” value amounted to 0.69, the “discrimination rate vs Olanzapine” value is given as 0.61 and the “discrimination rate vs Risperidone” value is reported as 0.63.

As for `Cc1c(-c2cccnc2)ccc2c1N(C)C(=O)C2(C)C` [Example 36, 1,3,3,7-Tetramethyl-6-(pyridin-3-yl)indolin-2-one], the inhibition at 30 mg/kg in assay [1] amounted to 79.3%.

In turn, `Cc1ncc(-c2ccc3c(c2)N(CCOC(F)(F)F)C(=O)C3(C)C)cn1` [Example 128, 3,3-Dimethyl-6-(2-methylpyrimidin-5-yl)-1(2-(trifluoromethoxy)ethyl)indolin-2-one] yielded an inhibition at 30 mg/kg in assay [1] of 66.1%.

In assay [1], `COCC(CN1C(=O)C(C)(C)c2ccc(-c3cnc(C)nc3)cc21)OC` (stereo not drawn) [Example 175, 1-(2,3-dimethoxypropyl)-3,3-dimethyl-6-(2-methylpyrimidin-5-yl)indolin-2-one] returned an inhibition at 30 mg/kg of 95.3%.

In assay [1], `CN1C(=O)C(C)(C)c2ccc(-c3cccnc3)c(F)c21` [Example 34, 7-Fluoro-1,3,3-trimethyl-6-(pyridin-3-yl)indolin-2-one] gave an inhibition at 30 mg/kg of 56.9%.

On to `Cc1noc(-c2ccc3c(c2)NC(=O)C3(C)C)n1` [Example 60, 3,3-Dimethyl-6-(3-methyl-1,2,4-oxadiazol-5-yl)indolin-2-one], for which 30 mg/kg produced 24% inhibition in assay [1].

With `CN1C(=O)C(C)(C)c2ccc(-c3cccnc3)cc21` [Example 3, 1,3,3-Trimethyl-6-(pyridin-3-yl)indolin-2-one], the inhibition at 30 mg/kg in assay [1] worked out at 53.4%.

For the compound `Cc1ncc(-c2ccc3c(c2)N(CCCF)C(=O)C3(C)C)cn1` [Example 131, 1-(3-Fluoropropyl)-3,3-dimethyl-6-(2-methylpyrimidin-5-yl)indolin-2-one], 30 mg/kg produced 95.3% inhibition in assay [1].

Consider `Cc1ncc(-c2ccc3c(c2)N(C)C(=O)C3(C)C)[nH]1` [Example 67, 1,3,3-Trimethyl-6-(2-methyl-1H-imidazol-5-yl)indolin-2-one], for which testing at 30 mg/kg in assay [1] gave an inhibition of 42.6%.

In turn, `Cc1nnc(-c2ccc3c(c2)N(C)C(=O)C3(C)C)s1` [Example 72, 1,3,3-Trimethyl-6-(5-methyl-1,3,4-thiadiazol-2-yl)indolin-2-one] had an inhibition at 30 mg/kg in assay [1] of 67.4%.

Compound `CN1C(=O)C(C)(C)c2cc(F)c(-c3cncnc3)c(F)c21` [Example 43, 5,7-Difluoro-1,3,3-trimethyl-6-pyrimidin-5-yl-1,3-dihydro-indol-2-one] had an inhibition at 30 mg/kg in assay [1] of 60.5%.

Regarding `CN1C(=O)C(C)(C)c2ccc(-c3cn(CC(F)(F)F)cn3)cc21` [Example 134, 1,3,3-Trimethyl-6-(1-(2,2,2-trifluoroethyl)-1H-imidazol-4-yl)indolin-2-one], in assay [1], the inhibition at 30 mg/kg was determined as 79.8%.

Turning to `CCc1ncncc1-c1ccc2c(c1)N(C)C(=O)C2(C)C` [Example 14, 6-(4-Ethylpyrimidin-5-yl)-1,3,3-trimethylindolin-2-one], testing at 30 mg/kg in assay [1] gave an inhibition of 66.4%.

Take `CC1(C)C(=O)Nc2cc(-n3ccnc3)ccc21` [Example 58, 6-Imidazol-1-yl-3,3-dimethyl-1,3-dihydro-indol-2-one]: in assay [2], the SmartCube behavioral signature result is “similarity to atypical antipsychotics”, the “discrimination rate vs Clozapine” value was determined as 0.63, the “discrimination rate vs Olanzapine” value is reported as 0.69 and the “discrimination rate vs Risperidone” value worked out at 0.66.

`CN1C(=O)C(C)(C)c2cc(F)c(-c3ccncc3)cc21` [Example 38, 5-Fluoro-1,3,3-trimethyl-6-(pyridin-4-yl)indolin-2-one] showed an inhibition at 30 mg/kg in assay [1] of 57.3%.

Regarding `Cc1cn(-c2ccc3c(c2)NC(=O)C3(C)C)cn1` [Example 63, 3,3-Dimethyl-6-(4-methyl-1H-imidazol-1-yl)indolin-2-one], the inhibition at 30 mg/kg in assay [1] is 68.9%.

In assay [1], `Cc1nnc(-c2ccc3c(c2)N(C)C(=O)C3(C)C)o1` [Example 93, 1,3,3-Trimethyl-6-(5-methyl-1,3,4-oxadiazol-2-yl)indolin-2-one] came in with an inhibition at 30 mg/kg of 68.6%.

In the case of `CN1C(=O)C(C)(C)c2ccc(-c3cncnc3)cc21` [Example 4, 1,3,3-Trimethyl-6-(pyrimidin-5-yl)indolin-2-one], the inhibition at 30 mg/kg in assay [1] was 74.6%.

In assay [1], `Cc1cnccc1-c1ccc2c(c1)NC(=O)C2(C)C` [Example 20, 3,3-Dimethyl-6-(3-methylpyridin-4-yl)indolin-2-one] showed an inhibition at 30 mg/kg of 47.5%.

Regarding `Cc1ncnc(C)c1-c1ccc2c(c1)N(C)C(=O)C2(C)C` [Example 31, 6-(4,6-Dimethyl-pyrimidin-5-yl)-1,3,3-trimethyl-1,3-dihydro-indol-2-one], in assay [1], the inhibition at 30 mg/kg amounted to 81.2%.

Values taken from US9616053B2, “Indolin-2-one or pyrrolo-pyridin/pyrimidin-2-one derivatives” (Hoffmann-La Roche Inc., priority 2013, dated 2017).
